Results from ChEMBL document CHEMBL1135946, “Design, synthesis and biological activity of novel non-amidine factor Xa inhibitors. Part 1: P(1) structure-activity relationships of the substituted 1-(2-Naphthyl)-1H-pyrazole-5-carboxylamides” (Bioorg Med Chem Lett, 2002).
One block for each compound: values may come before it.

Legend:
Coagulation factor X [1] = molecular target: T1, Coagulation factor X (Homo sapiens, UniProt P00742); test: Inhibitory activity against coagulation factor Xa
[2] = molecular target: Vitamin K-dependent protein C (Homo sapiens, UniProt P04070); test: Inhibitory activity against activated protein C
Serine protease 1 = Serine protease 1 (Homo sapiens, UniProt P07477); test: Inhibitory activity against trypsin
Prothrombin = Prothrombin (Homo sapiens, UniProt P00734); test: Inhibitory activity against thrombin
Plasminogen = Plasminogen (Homo sapiens, UniProt P00747); test: Inhibitory activity against plasmin
Kallikrein-1 = Kallikrein-1 (Homo sapiens, UniProt P06870); test: Inhibitory activity against kallikrein
[3] = Clearance after iv administration to Sprague-Dawley rat at dosage of 0.2 mg/kg; format: ADME, organism-based; design: dose 0.2 mg/kg, route intravenous; details: in vivo
[4] = Tested for volume of distribution after intravenous administration to Sprague-Dawley rat at dosage of 0.2 mg/kg; format: ADME, organism-based; design: dose 0.2 mg/kg, route intravenous; details: in vivo, read-out: Volume of distribution
[5] = Tested for half life value after oral administration at dosage of 4 mg/kg in rat; format: ADME, organism-based; design: dose 4 mg/kg, route oral; details: in vivo
Coagulation factor X [6] = molecular target: T1, Coagulation factor X; test: Tested for inhibitory activity against Coagulation factor Xa (trypsin-like serine protease) of the compound
[7] = Tested for half life value after intravenous administration at dose of 0.2 mg/kg in rat; format: ADME, organism-based; design: dose 0.2 mg/kg, route intravenous; details: in vivo
[8] = Tested for percent bioavailability after oral administration to Sprague-Dawley rat at dosage of 4 mg/kg; details: in vivo, read-out: Bioavailabiility
[9] = Half-life was determined; format: ADME, organism-based; details: rat, in vivo
[10] = Oral bioavailability in rat by oral dosing; format: ADME, organism-based; details: in vivo

Chain of Kallikrein-1 (P06870 whole entry): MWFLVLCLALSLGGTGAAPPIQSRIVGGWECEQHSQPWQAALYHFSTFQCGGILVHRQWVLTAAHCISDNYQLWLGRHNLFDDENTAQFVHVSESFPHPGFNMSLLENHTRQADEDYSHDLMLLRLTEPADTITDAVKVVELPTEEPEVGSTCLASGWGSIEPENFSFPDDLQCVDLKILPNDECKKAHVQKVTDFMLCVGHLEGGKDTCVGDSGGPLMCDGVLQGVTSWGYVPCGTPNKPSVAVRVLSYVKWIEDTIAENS
T1 sequence (P00742 41-179 limits assumed): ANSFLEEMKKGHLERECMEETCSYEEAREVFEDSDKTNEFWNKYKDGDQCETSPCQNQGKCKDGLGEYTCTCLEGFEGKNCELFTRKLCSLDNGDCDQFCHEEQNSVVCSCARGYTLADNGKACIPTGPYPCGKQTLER
T1 sequence (P00742 235-488 limits assumed): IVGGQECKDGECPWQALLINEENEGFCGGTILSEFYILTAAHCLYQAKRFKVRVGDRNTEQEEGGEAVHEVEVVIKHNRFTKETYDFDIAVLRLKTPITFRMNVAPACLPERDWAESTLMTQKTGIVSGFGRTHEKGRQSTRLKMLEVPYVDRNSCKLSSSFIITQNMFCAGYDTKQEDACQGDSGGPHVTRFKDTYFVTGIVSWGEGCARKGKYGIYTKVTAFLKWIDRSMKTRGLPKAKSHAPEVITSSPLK
Chain of Plasminogen (P00747 97-580 limits assumed): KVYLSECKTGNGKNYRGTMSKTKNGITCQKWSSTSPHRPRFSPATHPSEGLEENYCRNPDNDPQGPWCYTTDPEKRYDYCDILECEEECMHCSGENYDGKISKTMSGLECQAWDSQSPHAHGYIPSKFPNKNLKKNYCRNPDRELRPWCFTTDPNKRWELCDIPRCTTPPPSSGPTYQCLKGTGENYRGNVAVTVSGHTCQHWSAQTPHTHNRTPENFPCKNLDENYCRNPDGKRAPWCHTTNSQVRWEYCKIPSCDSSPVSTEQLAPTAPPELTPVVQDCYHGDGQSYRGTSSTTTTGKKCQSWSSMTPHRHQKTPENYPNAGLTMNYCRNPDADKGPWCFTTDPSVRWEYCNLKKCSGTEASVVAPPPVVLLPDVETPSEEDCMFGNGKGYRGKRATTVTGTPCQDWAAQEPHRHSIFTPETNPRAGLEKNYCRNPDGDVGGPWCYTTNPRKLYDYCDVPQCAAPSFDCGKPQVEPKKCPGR
Chain of Plasminogen (P00747 581-810 limits assumed): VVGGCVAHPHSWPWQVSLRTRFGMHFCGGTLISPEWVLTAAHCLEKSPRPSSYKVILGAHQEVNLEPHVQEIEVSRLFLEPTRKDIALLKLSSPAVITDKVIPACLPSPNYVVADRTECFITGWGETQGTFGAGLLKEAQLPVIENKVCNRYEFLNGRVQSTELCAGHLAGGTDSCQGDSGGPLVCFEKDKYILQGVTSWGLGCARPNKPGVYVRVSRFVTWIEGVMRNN
Chain of Vitamin K-dependent protein C (P04070 43-197 limits assumed): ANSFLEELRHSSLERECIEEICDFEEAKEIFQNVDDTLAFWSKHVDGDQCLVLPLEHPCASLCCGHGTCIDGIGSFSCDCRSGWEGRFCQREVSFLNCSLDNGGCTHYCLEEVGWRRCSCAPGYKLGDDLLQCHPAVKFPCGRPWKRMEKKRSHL
Chain of Vitamin K-dependent protein C (P04070 212-461 limits assumed): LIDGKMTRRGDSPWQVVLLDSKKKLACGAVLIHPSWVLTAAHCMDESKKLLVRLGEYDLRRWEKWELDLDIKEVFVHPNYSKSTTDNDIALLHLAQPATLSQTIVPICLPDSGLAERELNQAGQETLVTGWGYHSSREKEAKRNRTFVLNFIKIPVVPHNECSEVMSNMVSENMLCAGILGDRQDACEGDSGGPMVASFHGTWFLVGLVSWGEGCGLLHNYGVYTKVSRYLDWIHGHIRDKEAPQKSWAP
Chain of Serine protease 1 (P07477 whole entry): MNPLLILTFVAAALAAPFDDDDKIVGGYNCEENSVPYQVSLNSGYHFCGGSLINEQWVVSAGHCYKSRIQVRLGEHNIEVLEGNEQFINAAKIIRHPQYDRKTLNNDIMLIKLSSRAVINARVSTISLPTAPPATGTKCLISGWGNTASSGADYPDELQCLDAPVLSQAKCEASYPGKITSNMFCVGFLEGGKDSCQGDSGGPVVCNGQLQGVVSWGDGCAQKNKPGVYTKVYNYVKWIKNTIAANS

IC50 (Coagulation factor X [1]): 0.004 µM
Compound: NS(=O)(=O)c1ccccc1-c1ccc(NC(=O)c2cc(C(F)(F)F)nn2-c2ccc3cc(Cl)ccc3c2)cc1

IC50 (Coagulation factor X [1]): 0.006 µM
IC50 [2]: > 11 µM
IC50 (Serine protease 1): > 11 µM
IC50 (Prothrombin): > 11 µM
IC50 (Plasminogen): > 11 µM
IC50 (Kallikrein-1): > 11 µM
Compound: Cc1cc(C(=O)Nc2ccc(-c3ccccc3S(N)(=O)=O)cc2)n(-c2cc3ccccc3cc2C#N)n1

IC50 (Coagulation factor X [1]): 0.038 µM
IC50 [2]: > 11 µM
IC50 (Serine protease 1): > 11 µM
IC50 (Prothrombin): > 11 µM
IC50 (Plasminogen): > 11 µM
IC50 (Kallikrein-1): > 11 µM
Compound: Cc1cc(C(=O)Nc2ccc(-c3ccccc3S(N)(=O)=O)cc2)n(-c2cc3ccccc3cc2CN)n1

IC50 (Coagulation factor X [1]): 0.483 µM
IC50 [2]: > 11 µM
IC50 (Serine protease 1): > 11 µM
IC50 (Prothrombin): > 11 µM
IC50 (Plasminogen): > 11 µM
IC50 (Kallikrein-1): > 11 µM
Compound: Cc1cc(C(=O)Nc2ccc(-c3ccccc3S(N)(=O)=O)cc2)n(-c2cc3ccccc3cc2CO)n1

clearance [3]: 17.7 mL/min/kg
IC50 (Coagulation factor X [1]): 0.009 µM
IC50 [2]: > 11 µM
Vd [4]: 2.6 L/kg
half-life [5]: 6 h
Ki (Coagulation factor X [6]): 0.0057 µM
half-life [7]: 1.7 h
IC50 (Serine protease 1): > 11 µM
IC50 (Prothrombin): > 11 µM
IC50 (Plasminogen): > 11 µM
bioavailability [8]: 22%
IC50 (Kallikrein-1): > 11 µM
Compound: Cc1cc(C(=O)Nc2ccc(-c3ccccc3S(N)(=O)=O)cc2)n(-c2cc3ccccc3cc2F)n1

IC50 (Coagulation factor X [1]): 0.376 µM
IC50 [2]: > 11 µM
IC50 (Serine protease 1): > 11 µM
IC50 (Prothrombin): > 11 µM
IC50 (Plasminogen): > 11 µM
IC50 (Kallikrein-1): > 11 µM
Compound: Cc1cc(C(=O)Nc2ccc(-c3ccccc3S(N)(=O)=O)cc2)n(-c2cc3ccccc3cc2C(=O)O)n1

IC50 (Coagulation factor X [1]): > 11 µM
IC50 [2]: > 11 µM
IC50 (Serine protease 1): > 11 µM
IC50 (Prothrombin): > 11 µM
IC50 (Plasminogen): > 11 µM
IC50 (Kallikrein-1): > 11 µM
Compound: Cc1cc(C(=O)Nc2ccc(-c3ccccc3S(N)(=O)=O)cc2)n(-c2cc3ccccc3cc2O)n1

IC50 (Coagulation factor X [1]): 0.027 µM
Compound: NS(=O)(=O)c1ccccc1-c1ccc(NC(=O)c2cc(C(F)(F)F)nn2-c2cc3ccccc3cc2F)cc1

IC50 (Coagulation factor X [1]): 0.021 µM
IC50 [2]: > 11 µM
IC50 (Serine protease 1): > 11 µM
IC50 (Prothrombin): > 11 µM
IC50 (Plasminogen): > 11 µM
IC50 (Kallikrein-1): > 11 µM
Compound: Cc1cc(C(=O)Nc2ccc(-c3ccccc3S(N)(=O)=O)cc2)n(-c2cc3ccccc3cc2C(=N)N)n1

IC50 (Coagulation factor X [1]): 0.024 µM
IC50 [2]: > 11 µM
IC50 (Serine protease 1): > 11 µM
IC50 (Prothrombin): > 11 µM
IC50 (Plasminogen): > 11 µM
IC50 (Kallikrein-1): > 11 µM
Compound: Cc1cc(C(=O)Nc2ccc(-c3ccccc3S(N)(=O)=O)cc2)n(-c2cc3ccccc3cc2C(N)=O)n1

IC50 (Coagulation factor X [1]): 0.143 µM
IC50 [2]: > 11 µM
IC50 (Serine protease 1): > 11 µM
IC50 (Prothrombin): > 11 µM
IC50 (Plasminogen): > 11 µM
IC50 (Kallikrein-1): > 11 µM
Compound: Cc1cc(C(=O)Nc2ccc(-c3ccccc3S(N)(=O)=O)cc2)n(-c2cc3ccccc3cc2Br)n1

More lines, now with the values behind:

Compound: Cc1cc(C(=O)Nc2ccc(-c3ccccc3S(N)(=O)=O)cc2)n(-c2ccc3cc(Cl)ccc3c2)n1
IC50 (Coagulation factor X [1]): 0.011 µM
IC50 [2]: > 11 µM
IC50 (Serine protease 1): > 11 µM
IC50 (Prothrombin): > 11 µM
IC50 (Plasminogen): > 11 µM
IC50 (Kallikrein-1): > 11 µM

Compound: Cc1cc(C(=O)Nc2ccc(-c3ccccc3S(N)(=O)=O)cc2)n(-c2cc3ccccc3cc2S(N)(=O)=O)n1
IC50 (Coagulation factor X [1]): 0.024 µM
IC50 [2]: > 11 µM
IC50 (Serine protease 1): > 11 µM
IC50 (Prothrombin): > 11 µM
IC50 (Plasminogen): > 11 µM
IC50 (Kallikrein-1): > 11 µM

Compound: Cc1cc(C(=O)Nc2ccc(-c3ccccc3S(N)(=O)=O)cc2)n(-c2cc3ccccc3cc2C2=NCCN2)n1
IC50 (Coagulation factor X [1]): 7.82 µM
IC50 [2]: > 11 µM
IC50 (Serine protease 1): > 11 µM
IC50 (Prothrombin): > 11 µM
IC50 (Plasminogen): > 11 µM
IC50 (Kallikrein-1): > 11 µM

Compound: Cc1cc(C(=O)Nc2ccc(-c3ccccc3S(N)(=O)=O)cc2)n(-c2ccc3cc(Br)ccc3c2)n1
IC50 (Coagulation factor X [1]): 0.018 µM
IC50 [2]: > 11 µM
IC50 (Serine protease 1): > 11 µM
IC50 (Prothrombin): > 11 µM
IC50 (Plasminogen): > 11 µM
IC50 (Kallikrein-1): > 11 µM

Compound: COC(=O)c1cc2ccccc2cc1-n1nc(C)cc1C(=O)Nc1ccc(-c2ccccc2S(N)(=O)=O)cc1
IC50 (Coagulation factor X [1]): 0.545 µM
IC50 [2]: > 11 µM
IC50 (Serine protease 1): > 11 µM
IC50 (Prothrombin): > 11 µM
IC50 (Plasminogen): > 11 µM
IC50 (Kallikrein-1): > 11 µM

Compound: Cc1cc(C(=O)Nc2ccc(-c3ccccc3S(N)(=O)=O)cc2)n(-c2cc3ccccc3cc2C(=N)N(C)C)n1
IC50 (Coagulation factor X [1]): 1.65 µM
IC50 [2]: > 11 µM
IC50 (Serine protease 1): > 11 µM
IC50 (Prothrombin): > 11 µM
IC50 (Plasminogen): > 11 µM
IC50 (Kallikrein-1): > 11 µM

Compound: COc1ccc2cc(-n3nc(C)cc3C(=O)Nc3ccc(-c4ccccc4S(N)(=O)=O)cc3)ccc2c1
IC50 [2]: > 11 µM
IC50 (Serine protease 1): > 11 µM
IC50 (Prothrombin): > 11 µM
IC50 (Plasminogen): > 11 µM
IC50 (Kallikrein-1): > 11 µM

Compound: Cc1cc(C(=O)Nc2ccc(-c3ccccc3S(N)(=O)=O)cc2)n(-c2ccc3cc(O)ccc3c2)n1
IC50 (Coagulation factor X [1]): 3.51 µM
IC50 [2]: > 11 µM
IC50 (Serine protease 1): > 11 µM
IC50 (Prothrombin): > 11 µM
IC50 (Plasminogen): > 11 µM
IC50 (Kallikrein-1): > 11 µM

Compound: Cc1cc(C(=O)Nc2ccc(-c3ccccc3S(N)(=O)=O)cc2)n(-c2cc3ccccc3cc2S(C)(=O)=O)n1
IC50 (Coagulation factor X [1]): 0.045 µM
IC50 [2]: > 11 µM
IC50 (Serine protease 1): > 11 µM
IC50 (Prothrombin): > 11 µM
IC50 (Plasminogen): > 11 µM
IC50 (Kallikrein-1): > 11 µM

Compound: Cc1cc(C(=O)Nc2ccc(-c3ccccc3S(N)(=O)=O)cc2)n(-c2nc3ccc(Cl)cc3s2)n1
IC50 (Coagulation factor X [1]): > 11 µM

Compound: Cc1cc(C(=O)Nc2ccc(-c3ccccc3S(N)(=O)=O)cc2)n(-c2ccc3ccccc3c2)n1
IC50 (Coagulation factor X [1]): 0.104 µM
IC50 [2]: > 11 µM
IC50 (Serine protease 1): > 11 µM
half-life [9]: 2.4 h
IC50 (Prothrombin): > 11 µM
bioavailability [10]: 24.5%
IC50 (Plasminogen): > 11 µM
IC50 (Kallikrein-1): > 11 µM
